Among the data in patent publication US6908897B2, “Covalently bridged insulin dimers” (Aventis Pharma Deutschland GmbH, priority 1999, dated 2005) are Rel. biol. activity, Rel. receptor binding and bioactivity in vitro values, retold here.

One assay has as its system 3T3-L1 adipocytes. Put plainly: Relative biological activity as glucose transport in cultivated 3T3-L1 adipocytes. The class given is cell-based. The settings on record: compared with native insulin.
For another assay, the target named is T1, insulin receptors (Homo sapiens, UniProt P06213).
T1 construct: endogenous in cells; host or cells: IM-9 lymphocytes
T1 sequence (P06213 28-758 limits assumed): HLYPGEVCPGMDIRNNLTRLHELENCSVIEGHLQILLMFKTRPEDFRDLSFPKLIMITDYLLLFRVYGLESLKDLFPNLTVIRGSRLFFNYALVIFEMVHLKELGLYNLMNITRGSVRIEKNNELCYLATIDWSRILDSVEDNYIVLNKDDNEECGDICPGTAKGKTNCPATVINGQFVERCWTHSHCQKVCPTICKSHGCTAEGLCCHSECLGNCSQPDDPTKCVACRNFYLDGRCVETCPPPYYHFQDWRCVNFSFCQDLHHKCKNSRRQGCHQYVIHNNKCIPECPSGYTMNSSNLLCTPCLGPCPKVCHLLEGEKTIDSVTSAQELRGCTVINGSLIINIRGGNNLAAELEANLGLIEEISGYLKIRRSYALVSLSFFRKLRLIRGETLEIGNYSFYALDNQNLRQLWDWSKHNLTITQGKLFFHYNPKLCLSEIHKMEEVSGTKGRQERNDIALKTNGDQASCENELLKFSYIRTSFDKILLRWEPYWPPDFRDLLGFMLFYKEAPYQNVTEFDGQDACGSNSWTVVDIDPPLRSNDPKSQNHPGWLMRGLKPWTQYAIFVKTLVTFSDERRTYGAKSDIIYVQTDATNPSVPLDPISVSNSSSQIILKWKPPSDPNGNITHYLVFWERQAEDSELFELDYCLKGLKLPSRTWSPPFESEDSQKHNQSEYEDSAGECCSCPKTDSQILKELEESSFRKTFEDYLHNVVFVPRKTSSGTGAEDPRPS
T1 sequence (P06213 763-1382 partner limits assumed): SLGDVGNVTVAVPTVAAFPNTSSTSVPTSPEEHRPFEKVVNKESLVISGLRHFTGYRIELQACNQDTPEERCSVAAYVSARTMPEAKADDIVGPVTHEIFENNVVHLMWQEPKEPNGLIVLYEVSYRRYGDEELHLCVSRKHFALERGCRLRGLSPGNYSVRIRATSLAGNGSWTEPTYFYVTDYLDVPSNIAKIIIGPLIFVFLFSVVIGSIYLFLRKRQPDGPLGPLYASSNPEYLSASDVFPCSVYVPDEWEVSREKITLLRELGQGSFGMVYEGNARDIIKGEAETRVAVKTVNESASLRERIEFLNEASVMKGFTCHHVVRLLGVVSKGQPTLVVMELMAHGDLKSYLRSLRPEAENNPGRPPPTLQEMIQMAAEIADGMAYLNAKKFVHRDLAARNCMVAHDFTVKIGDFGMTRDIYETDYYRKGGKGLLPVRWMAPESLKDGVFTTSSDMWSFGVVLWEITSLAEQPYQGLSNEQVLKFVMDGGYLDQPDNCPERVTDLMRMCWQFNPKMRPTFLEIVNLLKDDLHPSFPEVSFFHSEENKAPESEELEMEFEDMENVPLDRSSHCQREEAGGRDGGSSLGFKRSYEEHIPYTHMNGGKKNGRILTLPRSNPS
Put plainly: Receptor binding by displacement studies on IM-9 lymphocytes. The following applies: compared with native insulin.

For assay [1] the following is noted: literature value; cited from earlier work.

Description for 3T3-L1 adipocytes: (§1) The receptor binding was determined by displacement studies on IM-9 lymphocytes. The relative biological activity was determined on cultivated 3T3-L1 adipocytes in the form of the glucose transport.
Description for insulin receptors: as §1

For the substance “B1,B1′-Sub-[Glu^B26}-des-(B27-B30)-insulin-B26-amide Insulin Dimer”, in the assay with 3T3-L1 adipocytes, the Rel. biol. activity came to 817.5 ± 224%. Further, the Rel. receptor binding on insulin receptors was found to be 176 ± 45.8%.

As to “B1,B1′-Sub-[Sar^B26]-des-(B27-B30)-insulin-B26-amide Insulin Dimer”, the Rel. biol. activity with 3T3-L1 adipocytes is 1957 ± 575%. Further, the Rel. receptor binding on insulin receptors is reported as 412 ± 94.8%.

For the substance B1,B1′-suberoyl-insulin dimer, the bioactivity in vitro in assay [1] is 28.8%.
